According to patent US20230111310A1, “CARBOXYLIC ACID DERIVATIVE-SUBSTITUTED IMINO ARYL COMPOUND, PREPARATION METHOD THEREFOR, HERBICIDAL COMPOSITION AND USE THEREOF” (Qingdao Kingagroot Chemical Compound Co., Ltd., priority 2020, published 2023):

Experiments:
Test in all cases: Weeding effect in post-emergence stage
Format in all cases: in vivo
Conditions in all cases: fresh weight control rate level
Alopecurus japonicus = system: Alopecurus japonicus
Summary of the method: (§1)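 Post-emergence spray tower; 2-3 leaf plants (2 wk after sowing, soil pots, greenhouse). Formulation: acetone, Tween 80, methyl oleate EC 1.5 liter/ha as synergist, water. Rates 500–7.5 g/ha. Growth control rate read at 3 wk; n=3, averaged.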

Digitaria sanguinalis = system: Digitaria sanguinalis
Summary of the method: as §1

Eleusine indica = system: Eleusine indica
Summary of the method: as §1

Setaria viridis = system: Setaria viridis
Summary of the method: as §1

Abutilon theophrasti = system: Abutilon theophrasti
Summary of the method: as §1

Echinochloa crusgalli = system: Echinochloa crusgalli
Summary of the method: as §1

| Structure (SMILES) | Weeding effect in post-emergence stage, Alopecurus japonicus (level) (Alopecurus japonicus; Dose 15 g/ha) | Weeding effect in post-emergence stage, Digitaria sanguinalis (level) (Digitaria sanguinalis; Dose 15 g/ha) | Weeding effect in post-emergence stage, Eleusine indica (level) (Eleusine indica; Dose 15 g/ha) | Weeding effect in post-emergence stage, Setaria viridis (level) (Setaria viridis; Dose 15 g/ha) | Weeding effect in post-emergence stage, Abutilon theophrasti (level) (Abutilon theophrasti; Dose 15 g/ha) | Weeding effect in post-emergence stage, Echinochloa crusgalli (level) (Echinochloa crusgalli; Dose 15 g/ha) | Weeding effect in post-emergence stage, Alopecurus japonicus (level) (Alopecurus japonicus; Dose 30 g/ha) | Weeding effect in post-emergence stage, Digitaria sanguinalis (level) (Digitaria sanguinalis; Dose 30 g/ha) | Weeding effect in post-emergence stage, Eleusine indica (level) (Eleusine indica; Dose 30 g/ha) | Weeding effect in post-emergence stage, Setaria viridis (level) (Setaria viridis; Dose 30 g/ha) | Weeding effect in post-emergence stage, Abutilon theophrasti (level) (Abutilon theophrasti; Dose 30 g/ha) | Weeding effect in post-emergence stage, Echinochloa crusgalli (level) (Echinochloa crusgalli; Dose 30 g/ha) |
| --- | --- | --- | --- | --- | --- | --- | --- | --- | --- | --- | --- | --- |
| COC(=O)C(CCCl)O/N=C/c1cc(-n2c(=O)cc(C(F)(F)F)n(C)c2=O)c(F)cc1Cl (stereo not drawn) [Compound 497] | 5 (Level 5: growth control rate is above 85%) | 5 (Level 5: growth control rate is above 85%) | 5 (Level 5: growth control rate is above 85%) | 5 (Level 5: growth control rate is above 85%) | 5 (Level 5: growth control rate is above 85%) | 5 (Level 5: growth control rate is above 85%) | – | – | – | – | – | – |
| CC(O/N=C/c1cc(-n2c(=O)cc(C(F)(F)F)n(C)c2=O)c(F)cc1Cl)C(=O)OCCC1OCCO1 (stereo not drawn) [Compound 498] | 5 (Level 5: growth control rate is above 85%) | 5 (Level 5: growth control rate is above 85%) | 5 (Level 5: growth control rate is above 85%) | 5 (Level 5: growth control rate is above 85%) | 5 (Level 5: growth control rate is above 85%) | 5 (Level 5: growth control rate is above 85%) | – | – | – | – | – | – |
| CC(O/N=C/c1cc(-n2c(=O)cc(C(F)(F)F)n(C)c2=O)c(F)cc1Cl)C(N)=O (stereo not drawn) [Compound 499] | 5 (Level 5: growth control rate is above 85%) | 5 (Level 5: growth control rate is above 85%) | 5 (Level 5: growth control rate is above 85%) | 5 (Level 5: growth control rate is above 85%) | 5 (Level 5: growth control rate is above 85%) | 5 (Level 5: growth control rate is above 85%) | – | – | – | – | – | – |
| CC(Cl)=CCOC(=O)C(C)ON=Cc1cc(-n2c(=O)cc(C(F)(F)F)n(C)c2=O)c(F)cc1Cl (stereo not drawn) [Compound 500] | 5 (Level 5: growth control rate is above 85%) | 5 (Level 5: growth control rate is above 85%) | 5 (Level 5: growth control rate is above 85%) | 5 (Level 5: growth control rate is above 85%) | 5 (Level 5: growth control rate is above 85%) | 5 (Level 5: growth control rate is above 85%) | – | – | – | – | – | – |
| C=C(Cl)COC(=O)C(C)O/N=C/c1cc(-n2c(=O)cc(C(F)(F)F)n(C)c2=O)c(F)cc1Cl (stereo not drawn) [Compound 501] | 5 (Level 5: growth control rate is above 85%) | 5 (Level 5: growth control rate is above 85%) | 5 (Level 5: growth control rate is above 85%) | 5 (Level 5: growth control rate is above 85%) | 5 (Level 5: growth control rate is above 85%) | 5 (Level 5: growth control rate is above 85%) | – | – | – | – | – | – |
| CCN(CC)C(=O)C(C)ON=Cc1cc(-n2c(=O)cc(C(F)(F)F)n(C)c2=O)c(F)cc1Cl (stereo not drawn) [Compound 502] | 5 (Level 5: growth control rate is above 85%) | 5 (Level 5: growth control rate is above 85%) | 5 (Level 5: growth control rate is above 85%) | 5 (Level 5: growth control rate is above 85%) | 5 (Level 5: growth control rate is above 85%) | 5 (Level 5: growth control rate is above 85%) | – | – | – | – | – | – |
| CC(ON=Cc1cc(-n2c(=O)cc(C(F)(F)F)n(C)c2=O)c(F)cc1Cl)C(=O)NS(=O)(=O)CCl (stereo not drawn) [Compound 503] | 5 (Level 5: growth control rate is above 85%) | 5 (Level 5: growth control rate is above 85%) | 5 (Level 5: growth control rate is above 85%) | 5 (Level 5: growth control rate is above 85%) | 5 (Level 5: growth control rate is above 85%) | 5 (Level 5: growth control rate is above 85%) | – | – | – | – | – | – |
| COC(=O)C(C)O/N=C/c1nc(-n2c(=O)cc(C(F)(F)F)n(C)c2=O)c(F)cc1Cl (stereo not drawn) [Compound 504] | 5 (Level 5: growth control rate is above 85%) | 5 (Level 5: growth control rate is above 85%) | 5 (Level 5: growth control rate is above 85%) | 5 (Level 5: growth control rate is above 85%) | 5 (Level 5: growth control rate is above 85%) | 5 (Level 5: growth control rate is above 85%) | – | – | – | – | – | – |
| COC(=O)C(C)ON=Cc1nc(-n2c(=O)n(C)c(=S)n(C)c2=O)c(F)cc1Cl (stereo not drawn) [Compound 511] | 5 (Level 5: growth control rate is above 85%) | 5 (Level 5: growth control rate is above 85%) | 5 (Level 5: growth control rate is above 85%) | 5 (Level 5: growth control rate is above 85%) | 5 (Level 5: growth control rate is above 85%) | 5 (Level 5: growth control rate is above 85%) | – | – | – | – | – | – |
| COC(=O)C(C)SN=Cc1cc(-n2c(=O)n(C)c(=S)n(C)c2=O)c(F)cc1Cl (stereo not drawn) [Compound 692] | 5 (Level 5: growth control rate is above 85%) | 5 (Level 5: growth control rate is above 85%) | 5 (Level 5: growth control rate is above 85%) | 5 (Level 5: growth control rate is above 85%) | 5 (Level 5: growth control rate is above 85%) | 5 (Level 5: growth control rate is above 85%) | – | – | – | – | – | – |
| COC(=O)C(C)SN=Cc1cc(-n2c(=O)cc(C(F)(F)F)n(C)c2=O)c(F)cc1Cl (stereo not drawn) [Compound 730] | 5 (Level 5: growth control rate is above 85%) | 5 (Level 5: growth control rate is above 85%) | 5 (Level 5: growth control rate is above 85%) | 5 (Level 5: growth control rate is above 85%) | 5 (Level 5: growth control rate is above 85%) | 5 (Level 5: growth control rate is above 85%) | – | – | – | – | – | – |
| COC(=O)C(C)NN=Cc1cc(-n2c(=O)n(C)c(=S)n(C)c2=O)c(F)cc1Cl (stereo not drawn) [Compound 881] | – | – | – | – | – | – | 5 (Level 5: growth control rate is above 85%) | 5 (Level 5: growth control rate is above 85%) | 5 (Level 5: growth control rate is above 85%) | 5 (Level 5: growth control rate is above 85%) | 5 (Level 5: growth control rate is above 85%) | 5 (Level 5: growth control rate is above 85%) |
| CC(C)OC(=O)C(C)N(C)N=Cc1cc(-n2c(=O)n(C)c(=S)n(C)c2=O)c(F)cc1Cl (stereo not drawn) [Compound 885] | – | – | – | – | – | – | 5 (Level 5: growth control rate is above 85%) | 5 (Level 5: growth control rate is above 85%) | 5 (Level 5: growth control rate is above 85%) | 5 (Level 5: growth control rate is above 85%) | 5 (Level 5: growth control rate is above 85%) | 5 (Level 5: growth control rate is above 85%) |
